Laboratory results: patent US20090012148A1, “REDUCING CELLULAR CHOLESTEROL LEVELS AND/OR TREATING OR PREVENTING PHOSPHOLIPIDOSIS” (priority 2005, published 2009)

Legend:
CT60 cells [1] = assay: Filipin binding assay, LSO compartment ratio (dose dependence, time course); format: cell-based, Chinese hamster
Source text: Although the intensity assay was potentially useful, it seemed that additional information in the images could provide better discrimination of wild type vs. NPC cells. For this purpose, we took advantage of the spatial distribution of the filipin labeling of the LSOs, which cluster near the nucleus (FIG. 1B). We applied the second, higher threshold for this bright cluster. We then measured the total fluorescence intensity in the selected LSO objects (high threshold, FIG. 2C) divided by the total number of pixels in cells (low threshold, FIG. 2D).
Image analysis: Images of filipin-stained cells were analyzed using Metamorph Discovery-1 image analysis software. Two different image analysis assays were developed: (1) Average filipin intensity assay and (2) LSO compartment ratio assay. First, to correct for shading an image was created by averaging all of the images from a plate and smoothing the averaged image using a low pass filter. Then each pixel in an image was multiplied by the average intensity of the shading image, and the resulting pixel intensities were divided by the shading image on a pixel-by-pixel basis. Background was subtracted from each shading-corrected image by determining the 5th percentile intensity value of the image and subtracting this value from each pixel in the image. At the plating density used, all fields had at least 5% of the imaged areas that was cell-free. Next, two different thresholds were applied to the filipin images. For the first, a low threshold was set to include all areas occupied by cells. […] A second, higher threshold was set for brightly stained regions in CT60 and/or CT43 cells by selecting bright areas of filipin staining, with the intention of mainly identifying the LSOs in the perinuclear region of the cells. For the Average filipin intensity assay, using the low threshold alone, we measured total filipin intensity above the low threshold divided by the number of pixels above the lower threshold for each field. This gave an average filipin intensity per cell area. For the LSO compartment ratio we measured the total filipin intensity selectively in the region above the higher threshold divided by the number of pixels in the lower threshold. This gave a measure of the total intensity of LSO filipin per cell area.
Dose Dependence: Using the same methods as for the screening, compounds were tested at 10 μM, 3.33 μM, 1.11 μM, 370 nM and 123 nM in four wells each. Batches of selected compounds were purchased from Chemical Diversity, and 10 mM stocks in DMSO were made. A secondary stock plate of 2× concentration (20 μM, 6.66 μM, 2.22 μM, 740 nM and 246 nM) of compounds was prepared in screening medium S. To obtain the final concentrations, […] of this secondary stock was added to the cells in each well containing 30 μl of growth medium A supplemented with 10% FBS. The final DMSO concentration (0.2% v/v) was the same in all wells. Cells were plated at 650 cells per well in 30 μl of growth medium A supplemented with 10% FBS in Costar 384 well plates. After 20 h of incubation in the presence of the compounds, cells were washed with PBS, fixed with PFA and stained with filipin as described for the screening assay. Dose dependence determination of the initial 14 hit compounds from the primary library was done at least 5 times in CT60 cells and 3 times in CT43 cells in separate experiments. Dose dependence determination of the 7 hit compounds from the secondary library was carried out at least 3 times in CT60 cells and 2 times in CT43 cells in separate experiments.
The effects of the compounds were determined at 1.11, 3.33 and 10 μM concentrations after 4, 20 and 48 h using methods similar to the dose dependence. The CT60 cells were seeded in three 384 well plates at 600 cells/well in growth medium on day 1. To maintain the same density of cells at the final time point, compounds were added chronologically. […]

CT60 cells [2] = assay: Filipin binding assay, average filipin intensity and staining pattern; format: cell-based, Chinese hamster; conditions: for Average Filipin Assay @ 10 μM dose Fraction of Control: compounds from secondary library
Procedure: We developed assays for correction of the NPC phenotype in CHO cell lines using filipin, which binds to non-esterified cholesterol and has been used to visualize the free cholesterol content in NPC cells. The initial screens were carried out in CT60 cells, which express a mutated hamster NPC1 protein and a gain of function mutation in SCAP (42). These cells cannot traffic LDL-derived cholesterol out of late endosomes, and large amounts of cholesterol accumulate in LSO compartments. FIGS. 1A-B show images of filipin staining in a control CHO cell line, TRVb1 (45) (FIG. 1A) and in CT60 cells (FIG. 1B). It can be seen that the CT60 cells show much more filipin staining than control cells and that the fluorescence in CT60 cells is concentrated in peri-nuclear organelles.
For screening, images were acquired using a Discovery-1 automated microscopy system with a 10× objective and corrected for background and shading as described in Methods. Two thresholds were set for filipin staining, a low threshold to include all cell areas, and a high threshold for the strong filipin staining in the peri-nuclear LSOs. The threshold values were set for each plate from analysis of 64 images in 32 wells of untreated CT60 cells. […] In developing the low threshold, we compared the outlines based on the thresholded cell images with transmitted light images, and the thresholds provided good agreement with the transmitted light cell boundaries.
As a simple measure of the intensity of filipin staining, we measured the filipin intensity per pixel above the threshold. The conditions of filipin labeling (time and concentration) were adjusted to optimize the discrimination between the CT60 cells and control TRVb1 cells. […] The quality of the assay for screening is expressed in terms of a statistical parameter Z′(46):
Using the above screening technique, we screened a library of 14,956 compounds added to cells for 16 hours at a final concentration of 10 μM, using a single well for each compound. Prior to application of the compounds, cells were grown in normal tissue culture medium containing 10% FBS, so the LSOs were filled with cholesterol (FIG. 1B). The cells were then imaged and analyzed using the average filipin intensity assay and the LSO compartment assay. In general, the two analyses identified similar compounds that reduced the filipin labeling.
Compound addition: The library compounds were formatted for screening in the Rockefeller University High Throughput Screening Facility. Cells were treated with the compounds from the chemical library one day after plating. We added […] of each compound (5 mM stock in DMSO) to 25 μl of screening Medium S composed of medium A supplemented with 1% FBS and 20 mM 4-(2-hydroxyethyl)-1-pipiperazine ethane sulphonic acid (HEPES) in Falcon 384-well V-bottomed polypropylene plates using a Packard MiniTrak™ robotic liquid handling system. To obtain ˜10 μM final concentration, 23 μl of the premixed compounds were dispensed into the plates containing cells and […] of culture medium A. For primary screening, 352 test compounds were added to each plate, and the remaining 32 wells were used as a control with only DMSO added. All plates were incubated with compounds for 16 h at 37° C. Plates were then washed three times with phosphate buffered saline pH 7.4 (PBS) using a Bio-Tek Elx405 plate washer (Bio-Tek Instruments Inc., Winooski, Vt.). For each wash cycle, […] of PBS was dispensed followed by aspiration with a residual volume of 16 μl per well. Finally, cells were fixed with 1.5% PFA in PBS for 20 min at room temperature, followed by 3 more washes with PBS.
Fluorescence labeling. To the fixed cells, filipin was added at a final concentration of 50 μg/ml in PBS for 45 m at room temperature to label free cholesterol. Cells were finally washed three times with PBS, and images were acquired immediately after labeling. […]

`CCOc1cccc2cc(-c3csc(Nc4cccc(C(F)(F)F)c4)n3)c(=O)oc12` [Compound 1-a-14] was tested, and the “shape of dose-response curve” value (CT60 cells [1]; 123 nM to 10 μM) was “unusual dose-response curve” and the “Average filipin intensity Fraction of control” value (CT60 cells [2]; 10 μM, 14 hit compounds from primary library) was 1.24 ± 0.04 Fraction of control.
For `CCN(CC)c1ccc(C=C2SC(=S)N(c3ccc(OC)cc3)C2=O)cc1` [Compound 2-a-3], the “decrease in the LSO compartment ratio after 4 hr treatment” value (CT60 cells [1]; 4 hr, 1.1, 3.3 and 10 μM tested) was “more than 3 SD”, the “Lowest Effective Dose (LSO Assay) (−3 SD @ 20 h)” value (CT60 cells [1]) was 3.33 µM and the “Average Filipin Assay @ 10 μM dose Fraction of Control” value (CT60 cells [2]) was 0.75 ± 0.01 Fraction of Control.
For `COc1ccccc1Nc1nc(Nc2ccccc2OC)nc(Nc2ccccc2OC)n1` [Compound 2-a-9], the “effect below solvent control at 123 nM” value (CT60 cells [1]) was 2 SD, the “Lowest Effective Dose (LSO Assay) (−3 SD @ 20 h)” value (CT60 cells [1]) was 370 µM and the “Average Filipin Assay @ 10 μM dose Fraction of Control” value (CT60 cells [2]) was 0.74 ± 0.01 Fraction of Control.
For `FC(F)(F)COc1nc(NN=Cc2cccc(I)c2)nc(N(c2ccccc2)c2ccccc2)n1` [Compound 2-a-12], the “effect below solvent control at 123 nM” value (CT60 cells [1]) was 2 SD, the “Lowest Effective Dose (LSO Assay) (−3 SD @ 20 h)” value (CT60 cells [1]) was 370 µM and the “Average Filipin Assay @ 10 μM dose Fraction of Control” value (CT60 cells [2]) was 0.87 ± 0.01 Fraction of Control.
For `O=[N+]([O-])c1cccc(C=NNc2nc(Nc3cccc4ccccc34)nc(N(c3ccccc3)c3ccccc3)n2)c1` [Compound 2-a-13], the “Lowest Effective Dose (LSO Assay) (−3 SD @ 20 h)” value (CT60 cells [1]) was 370 µM and the “Average Filipin Assay @ 10 μM dose Fraction of Control” value (CT60 cells [2]) was 0.75 ± 0.02 Fraction of Control.
With `C=CCN1C(=O)C(=Cc2cc(C)n(-c3ccccc3)c2C)C(C(=O)OC)=C1C` [Compound 2-a-15] the “Lowest Effective Dose (LSO Assay) (−3 SD @ 20 h)” value (CT60 cells [1]) was 3.33 µM and the “Average Filipin Assay @ 10 μM dose Fraction of Control” value (CT60 cells [2]) was 0.79 ± 0.01 Fraction of Control.
